# Data as given in patent publication US9969749B2, “Inhibitors of IRAK4 activity” (MERCK SHARP & DOHME CORP., priority 2014, dated 2018).
# Biological target: IRAK4 (Homo sapiens (Human), UniProt Q9NWZ3)
# Assay: IRAK4 Kinase Assay (IMAP fluorescence polarization)
# Type: biochemical
# Conditions: 0.5 nM GST tagged IRAK4, 100 μM ATP, 100 nM fluorescent peptide substrate RP7030, 30 minutes at 25° C.
# Method in brief: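 GST-tagged IRAK4 (0.5 nM) phosphorylates 100 nM fluorescent peptide with 100 μM ATP in 10 mM Tris pH 7.2, 1 mM MgCl2, 1 mM DTT, 0.01% Tween 20 for 30 min at 25 °C. Phosphorylation read as IMAP nanoparticle-binding fluorescence polarization after stop reagent.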
# Sequence of IRAK4 (Q9NWZ3 whole entry): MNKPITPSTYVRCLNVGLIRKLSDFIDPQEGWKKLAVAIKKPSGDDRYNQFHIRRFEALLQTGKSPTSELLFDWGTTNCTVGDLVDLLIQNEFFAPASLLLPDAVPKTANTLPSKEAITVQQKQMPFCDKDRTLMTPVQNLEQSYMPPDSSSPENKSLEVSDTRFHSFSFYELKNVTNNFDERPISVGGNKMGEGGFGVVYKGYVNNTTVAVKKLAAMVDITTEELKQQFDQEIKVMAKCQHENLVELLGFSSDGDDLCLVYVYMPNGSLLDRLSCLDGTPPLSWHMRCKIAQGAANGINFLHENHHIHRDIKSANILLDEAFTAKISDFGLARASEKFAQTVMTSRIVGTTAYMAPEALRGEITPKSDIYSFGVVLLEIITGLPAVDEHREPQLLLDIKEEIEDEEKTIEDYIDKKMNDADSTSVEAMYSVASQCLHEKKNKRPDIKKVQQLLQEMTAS
row,Compound,IC50
1,"Nc1cc(-c2ccc3ncnc(N[C@H]4CC[C@H](N5CCO[C@H](CF)C5)CC4)c3c2)cnc1F [Example 5-23, 6-(5-amino-6-fluoropyridin-3-yl)-N-{trans-4-[(2S)-2-(fluoromethyl)morpholin-4-yl]cyclohexyl}quinazolin-4-amine]",6 nM
2,"C[C@@H]1CN([C@H]2CC[C@H](Nc3ncnc4ccc(-c5cnc(F)c(N)c5)cc34)CC2)CCO1 [Example 5-24, 6-(5-amino-6-fluoropyridin-3-yl)-N-{trans-4-[(2R)-2-methylmorpholin-4-yl]cyclohexyl}quinazolin-4-amine]",1 nM
3,"C[C@H]1CN([C@H]2CC[C@H](Nc3ncnc4ccc(-c5cnc(F)c(N)c5)cc34)CC2)CCO1 [Example 5-25, 6-(5-amino-6-fluoropyridin-3-yl)-N-{trans-4-[(2S)-2-methylmorpholin-4-yl]cyclohexyl}quinazolin-4-amine]",1 nM
4,"CNc1cc(-c2ccc3ncnc(N[C@H]4CC[C@H](N5C[C@@H](C)O[C@@H](C)C5)CC4)c3c2)cnc1F [Example 5-26, N-{trans-4-[(2R,6S)-2,6-dimethylmorpholin-4-yl]cyclohexyl}-6-[6-fluoro-5-(methylamino)pyridin-3-yl]quinazolin-4-amine]",1 nM
5,"CNc1cc(-c2ccc3ncnc(N[C@H]4CC[C@H](N5CCC(F)(F)CC5)CC4)c3c2)cnc1F [Example 5-27, N-[trans-4-(4,4-difluoropiperidin-1-yl)cyclohexyl]-6-[6-fluoro-5-(methylamino)pyridin-3-yl]quinazolin-4-amine]",2 nM
6,"CNc1cc(-c2ccc3ncnc(N[C@H]4CC[C@H](N5CCN(C(=O)C6CC6)CC5)CC4)c3c2)cnc1F [Example 5-28, cyclopropyl {4-[trans-4-({6-[6-fluoro-5-(methylamino)pyridin-3-yl]quinazolin-4-yl}amino)cyclohexyl]piperazin-1-yl}methanone]",1 nM
7,"CNc1cc(-c2ccc3ncnc(N[C@H]4CC[C@H](N5CCC(F)CC5)CC4)c3c2)cnc1F [Example 5-29, 6-[6-fluoro-5-(methylamino)pyridin-3-yl]-N-[trans-4-(4-fluoropiperidin-1-yl)cyclohexyl]quinazolin-4-amine]",2 nM
8,"CNc1cc(-c2ccc3ncnc(N[C@H]4CC[C@H](N5CCO[C@H](C)C5)CC4)c3c2)cnc1F [Example 5-30, 6-[6-fluoro-5-(methylamino)pyridin-3-yl]-N-{trans-4-[(2R)-2-methylmorpholin-4-yl]cyclohexyl}quinazolin-4-amine]",1 nM
9,"CNc1cc(-c2ccc3ncnc(N[C@H]4CC[C@H](N5CCO[C@@H](C)C5)CC4)c3c2)cnc1F [Example 5-31, 6-[6-fluoro-5-(methylamino)pyridin-3-yl]-N-{trans-4-[(2S)-2-methylmorpholin-4-yl]cyclohexyl}quinazolin-4-amine]",1 nM
